Experimental data: ChEMBL document CHEMBL1201862, “PubChem BioAssay data set” (2004)
Calls of active or inactive are those of the source.

What was measured:
Assay type in all cases: functional
[1] = target: Vascular endothelial growth factor receptor 2 (Homo sapiens, UniProt P35968)
[2] = target: Mitogen-activated protein kinase kinase kinase kinase 2 (Homo sapiens, UniProt Q12851);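 note: measured as one member of a kinome-wide kinase panel, with MAP4K2 as the panel entry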
[3] = target: Calcium/calmodulin-dependent protein kinase type II subunit alpha (Homo sapiens, UniProt Q9UQM7); test: Navigating the Kinome. Panel member name: CAMK2A
[4] = target: Dual specificity tyrosine-phosphorylation-regulated kinase 1A (Homo sapiens, UniProt Q13627);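 note: measured against DYRK1A as one member of a broad kinome profiling panel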
[5] = target: Inhibitor of nuclear factor kappa-B kinase subunit epsilon (Homo sapiens, UniProt Q14164); test: Navigating the Kinome. Panel member name: IKBKE
LIM domain kinase 1 = LIM domain kinase 1 (Homo sapiens, UniProt P53667); test: Navigating the Kinome. Panel member name: LIMK1
Aurora kinase B = Aurora kinase B (Homo sapiens, UniProt Q96GD4)
[6] = target: Leucine-rich repeat serine/threonine-protein kinase 2 (Homo sapiens, UniProt Q5S007);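 note: value from a broad kinome-wide panel profiling study in which LRRK2 was one of the kinases tested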
[7] = target: cAMP-dependent protein kinase catalytic subunit PRKX (Homo sapiens, UniProt P51817)
[8] = target: G protein-coupled receptor kinase 5 (Homo sapiens, UniProt P34947); test: Navigating the Kinome. Panel member name: GPRK5
[9] = target: Proto-oncogene tyrosine-protein kinase receptor Ret (Homo sapiens, UniProt P07949);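 note: measured within a kinome-wide profiling panel, RET as the panel member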
[10] = target: Casein kinase I isoform alpha (Homo sapiens, UniProt P48729)
Aurora kinase A = Aurora kinase A (Homo sapiens, UniProt O14965);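 note: value from the Navigating the Kinome kinase panel profiling, panel entry STK6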
[11] = target: Serine/threonine-protein kinase D3 (Homo sapiens, UniProt O94806);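 note: determined within a kinase panel screen, with PRKCN as the panel member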
[12] = target: Cyclin-dependent kinase 8 (Homo sapiens, UniProt P49336); test: Navigating the Kinome. Panel member name: CDK8
[13] = target: Serine/threonine-protein kinase Nek2 (Homo sapiens, UniProt P51955)
[14] = target: Cyclin-dependent kinase 5 (Homo sapiens, UniProt Q00535);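 note: CDK5 measured as one member of a kinase profiling panel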
[15] = target: Death-associated protein kinase 3 (Homo sapiens, UniProt O43293);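 note: measured as one member of a kinome-wide profiling panel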
[16] = target: Serine/threonine-protein kinase Chk1 (Homo sapiens, UniProt O14757);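 note: measured as one member of a kinome-wide kinase profiling panel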
[17] = target: Platelet-derived growth factor receptor beta (Homo sapiens, UniProt P09619);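 note: value comes from a kinome panel, with PDGFRB tested as one panel member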
[18] = target: Tyrosine-protein kinase ABL1 (Homo sapiens, UniProt P00519)
Focal adhesion kinase 1 = Focal adhesion kinase 1 (Homo sapiens, UniProt Q05397);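 note: measured as one member of a kinome panel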
[19] = target: Protein kinase C theta type (Homo sapiens, UniProt Q04759); test: Navigating the Kinome. Panel member name: PRKCQ
[20] = target: Macrophage colony-stimulating factor 1 receptor (Homo sapiens, UniProt P07333);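 note: value comes from the Navigating the Kinome screening panel, CSF1R member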
[21] = target: Dual specificity tyrosine-phosphorylation-regulated kinase 1B (Homo sapiens, UniProt Q9Y463); test: Navigating the Kinome. Panel member name: DYRK1B
[22] = target: Tyrosine-protein kinase receptor TYRO3 (Homo sapiens, UniProt Q06418);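 note: TYRO3 value obtained as one member of a kinome-wide profiling panel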
[23] = target: Cyclin-dependent kinase 7 (Homo sapiens, UniProt P50613);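 note: value comes from a kinome-wide kinase profiling panel in which CDK7 is one member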
[24] = target: Dual specificity protein kinase CLK4 (Homo sapiens, UniProt Q9HAZ1)
[25] = target: Hepatocyte growth factor receptor (Homo sapiens, UniProt P08581);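 note: kinase panel profiling across the kinome, with MET as the panel member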
[26] = target: Leukocyte tyrosine kinase receptor (Homo sapiens, UniProt P29376); test: Navigating the Kinome. Panel member name: LTK
[27] = target: cAMP-dependent protein kinase catalytic subunit alpha (Homo sapiens, UniProt P17612)
[28] = target: T1, Small ubiquitin-related modifier 1 (Homo sapiens, UniProt P63165); test: SUMO1 protein interaction blockers, potency – biochemical, fluorescence polarization, uHTS hits, dose response (AID 624382); conditions: read-out: IC50_Mean
[29] = target: 72 kDa type IV collagenase (Homo sapiens, UniProt P08253); test: Dose Response validation of uHTS RPN11 inhibitor hits using a MMP-2 Fluorescence assay.
Bcl-2-related protein A1 = target: T2, Bcl-2-related protein A1 (Mus musculus, UniProt Q07440);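 note: confirmatory dose–response counterscreen on Bfl-1, used to check hits from a UBC13 polyubiquitin inhibitor campaign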
T2 sequence (Q07440 whole entry): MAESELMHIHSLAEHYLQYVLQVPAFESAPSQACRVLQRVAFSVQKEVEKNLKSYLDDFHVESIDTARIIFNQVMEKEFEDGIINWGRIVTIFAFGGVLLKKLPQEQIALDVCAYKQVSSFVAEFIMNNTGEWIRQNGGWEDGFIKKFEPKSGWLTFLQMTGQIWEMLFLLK

Prothrombin = Prothrombin (Bos taurus, UniProt P00735); test: thrombin protease inhibitors – biochemical, fluorescence polarization, uHTS hits, dose response (AID 602369)
[30] = target: 26S proteasome non-ATPase regulatory subunit 14 (Homo sapiens, UniProt O00487); test: inhibition of proteasome subunit RPN11 – biochemical, fluorescence polarization, uHTS hits, confirmation (AID 602368)
[31] = target: T3, Apoptotic protease-activating factor 1 (Homo sapiens, UniProt O14727); test: SAR analysis of small molecule inhibitors of Apaf-1 in a Fluorescent assay.; conditions: read-out: IC50_Mean
T3 sequence (O14727 whole entry): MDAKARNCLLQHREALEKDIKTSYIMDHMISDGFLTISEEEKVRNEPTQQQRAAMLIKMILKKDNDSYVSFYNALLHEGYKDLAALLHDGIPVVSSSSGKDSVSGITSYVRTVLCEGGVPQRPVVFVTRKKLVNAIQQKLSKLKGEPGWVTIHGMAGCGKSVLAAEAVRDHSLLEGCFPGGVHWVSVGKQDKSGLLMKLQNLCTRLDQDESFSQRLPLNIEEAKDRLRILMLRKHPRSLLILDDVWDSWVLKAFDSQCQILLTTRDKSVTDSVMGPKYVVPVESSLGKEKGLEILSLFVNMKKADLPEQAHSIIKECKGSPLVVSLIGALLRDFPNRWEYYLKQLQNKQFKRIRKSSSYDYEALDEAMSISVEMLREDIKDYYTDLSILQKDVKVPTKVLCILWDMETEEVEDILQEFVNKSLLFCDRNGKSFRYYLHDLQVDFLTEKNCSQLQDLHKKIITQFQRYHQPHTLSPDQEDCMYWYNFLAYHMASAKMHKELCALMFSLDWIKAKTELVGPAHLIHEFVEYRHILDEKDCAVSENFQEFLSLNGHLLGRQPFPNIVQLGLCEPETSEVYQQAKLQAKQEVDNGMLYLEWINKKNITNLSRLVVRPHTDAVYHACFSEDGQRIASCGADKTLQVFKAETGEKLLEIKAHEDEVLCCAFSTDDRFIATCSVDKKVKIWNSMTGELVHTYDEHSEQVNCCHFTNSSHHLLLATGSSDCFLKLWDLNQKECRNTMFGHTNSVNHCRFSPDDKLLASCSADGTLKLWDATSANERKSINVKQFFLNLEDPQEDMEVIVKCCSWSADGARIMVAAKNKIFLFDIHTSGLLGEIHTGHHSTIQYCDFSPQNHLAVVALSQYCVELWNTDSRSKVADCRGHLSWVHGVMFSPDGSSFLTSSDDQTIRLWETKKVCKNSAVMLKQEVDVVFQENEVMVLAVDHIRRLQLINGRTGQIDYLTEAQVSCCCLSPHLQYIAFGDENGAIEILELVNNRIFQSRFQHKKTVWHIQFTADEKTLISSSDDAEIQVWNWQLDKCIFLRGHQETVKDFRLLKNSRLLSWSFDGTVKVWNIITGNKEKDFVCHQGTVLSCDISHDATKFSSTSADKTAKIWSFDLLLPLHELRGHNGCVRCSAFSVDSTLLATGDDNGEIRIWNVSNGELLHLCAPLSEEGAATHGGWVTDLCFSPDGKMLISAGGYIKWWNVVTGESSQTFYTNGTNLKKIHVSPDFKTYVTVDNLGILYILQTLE

[32] = target: T1, Small ubiquitin-related modifier 1; test: SUMO1 protein-protein binding blockers, potency – biochemical, FRET, dose response (AID 624383); conditions: read-out: IC50_Mean
[33] = target: T4, Ubiquitin-conjugating enzyme E2 N (Homo sapiens, UniProt P61088)
T4 sequence (P61088 whole entry): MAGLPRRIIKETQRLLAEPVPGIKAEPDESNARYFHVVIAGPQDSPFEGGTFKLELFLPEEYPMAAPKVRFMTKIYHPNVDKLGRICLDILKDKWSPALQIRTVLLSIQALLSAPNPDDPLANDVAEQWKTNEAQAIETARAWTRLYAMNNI

INS1 = test: INS-1E survival protection against cytokine death – cell-based, luminescence, retest, dose response (AID 449756); conditions: Rattus norvegicus;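 note: cell death triggered by IL-1 beta plus TNF-alpha plus IFN-gamma mixture; protective hits raise ATP signal compared with cytokine alone wells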
[34] = target: T3, Apoptotic protease-activating factor 1
[35] = microbe, parasite or virus in culture; conditions: Mycobacterium tuberculosis
[36] = target: T4, Ubiquitin-conjugating enzyme E2 N; remark: listed apart in the source
[37] = target: T5, Rac GTPase-activating protein 1 (Homo sapiens, UniProt Q9H0H5); test: blockers of MgcRacGAP-driven Rac1 GTP hydrolysis – biochemical, ADP Hunter fluorescence, primary and confirmatory, confirmation (AID 624330)
T5 sequence (Q9H0H5 whole entry): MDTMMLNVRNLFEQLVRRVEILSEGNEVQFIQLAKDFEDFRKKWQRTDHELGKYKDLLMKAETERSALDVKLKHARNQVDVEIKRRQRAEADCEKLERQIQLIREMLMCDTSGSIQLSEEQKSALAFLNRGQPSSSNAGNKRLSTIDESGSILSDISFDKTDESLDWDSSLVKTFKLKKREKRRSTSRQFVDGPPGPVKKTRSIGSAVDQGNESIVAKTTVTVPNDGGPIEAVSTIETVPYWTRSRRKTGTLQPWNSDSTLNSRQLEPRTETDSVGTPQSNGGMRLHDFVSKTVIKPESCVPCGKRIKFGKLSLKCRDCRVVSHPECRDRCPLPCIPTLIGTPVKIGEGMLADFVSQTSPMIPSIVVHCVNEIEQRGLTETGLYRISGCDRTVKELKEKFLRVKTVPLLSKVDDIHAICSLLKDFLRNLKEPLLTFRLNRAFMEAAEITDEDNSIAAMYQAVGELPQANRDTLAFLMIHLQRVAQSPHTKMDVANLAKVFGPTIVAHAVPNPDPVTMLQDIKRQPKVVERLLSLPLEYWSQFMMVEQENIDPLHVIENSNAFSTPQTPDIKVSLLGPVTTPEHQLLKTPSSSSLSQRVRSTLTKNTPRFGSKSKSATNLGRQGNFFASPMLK

[38] = target: T6, Botulinum neurotoxin type A (Clostridium botulinum (strain Hall / ATCC 3502 / NCTC 13319 / Type A), UniProt P0DPI1); test: High-throughput multiplex microsphere dose response for inhibitors of toxin protease, specifically Botulinum neurotoxin light chain A protease, compounds from Cherry Pick 01.; conditions: read-out: EC50_MICROM
Lethal factor = Lethal factor (Bacillus anthracis, UniProt P15917); test: High-throughput multiplex microsphere dose response for inhibitors of toxin protease, specifically Lethal Factor protease, compounds from Cherry Pick 02.; conditions: read-out: EC50_MICROM
[39] = target: Botulinum neurotoxin type F (Clostridium botulinum, UniProt P30996); test: High-throughput multiplex microsphere dose response for inhibitors of toxin protease, specifically Botulinum neurotoxin light chain F protease, compounds from Cherry Pick 02.; conditions: read-out: EC50_MICROM
[40] = target: T6, Botulinum neurotoxin type A; test: High-throughput multiplex microsphere dose response for inhibitors of toxin protease, specifically Botulinum neurotoxin light chain A protease, compounds from Cherry Pick 02.; conditions: read-out: EC50_MICROM

T6 sequence (P0DPI1 2-448 limits assumed): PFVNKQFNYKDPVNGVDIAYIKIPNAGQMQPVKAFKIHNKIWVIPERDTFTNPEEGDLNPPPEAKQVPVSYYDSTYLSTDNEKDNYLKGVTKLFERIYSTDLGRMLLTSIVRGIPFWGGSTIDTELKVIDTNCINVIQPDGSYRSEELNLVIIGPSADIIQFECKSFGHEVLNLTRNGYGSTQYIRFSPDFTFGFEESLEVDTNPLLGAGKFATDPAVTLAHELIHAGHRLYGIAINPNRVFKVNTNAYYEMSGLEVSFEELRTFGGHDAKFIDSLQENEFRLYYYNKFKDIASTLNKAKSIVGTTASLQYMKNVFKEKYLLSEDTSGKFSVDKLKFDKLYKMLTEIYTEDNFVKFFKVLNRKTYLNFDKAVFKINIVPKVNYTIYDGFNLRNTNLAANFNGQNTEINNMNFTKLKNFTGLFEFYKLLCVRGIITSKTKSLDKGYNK
T1 sequence (P63165 whole entry): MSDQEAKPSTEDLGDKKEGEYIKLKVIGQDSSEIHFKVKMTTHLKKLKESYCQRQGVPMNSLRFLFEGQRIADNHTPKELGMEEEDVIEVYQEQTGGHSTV
Dual specificity protein kinase CLK4, sequence (Q9HAZ1 whole entry): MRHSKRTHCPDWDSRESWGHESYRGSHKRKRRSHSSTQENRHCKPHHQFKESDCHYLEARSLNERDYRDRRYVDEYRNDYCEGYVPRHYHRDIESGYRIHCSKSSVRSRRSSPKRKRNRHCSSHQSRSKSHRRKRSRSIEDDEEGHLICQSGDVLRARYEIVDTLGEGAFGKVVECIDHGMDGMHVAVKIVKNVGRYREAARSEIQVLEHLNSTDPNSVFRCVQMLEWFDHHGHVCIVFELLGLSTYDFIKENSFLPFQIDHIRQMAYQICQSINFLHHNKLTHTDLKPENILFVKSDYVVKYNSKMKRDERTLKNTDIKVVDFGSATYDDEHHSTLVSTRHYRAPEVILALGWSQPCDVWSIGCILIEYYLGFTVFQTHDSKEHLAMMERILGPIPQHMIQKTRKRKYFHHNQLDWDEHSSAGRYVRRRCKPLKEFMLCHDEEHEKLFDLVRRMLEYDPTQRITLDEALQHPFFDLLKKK
Inhibitor of nuclear factor kappa-B kinase subunit epsilon, sequence (Q14164 whole entry, the tested form may be a part): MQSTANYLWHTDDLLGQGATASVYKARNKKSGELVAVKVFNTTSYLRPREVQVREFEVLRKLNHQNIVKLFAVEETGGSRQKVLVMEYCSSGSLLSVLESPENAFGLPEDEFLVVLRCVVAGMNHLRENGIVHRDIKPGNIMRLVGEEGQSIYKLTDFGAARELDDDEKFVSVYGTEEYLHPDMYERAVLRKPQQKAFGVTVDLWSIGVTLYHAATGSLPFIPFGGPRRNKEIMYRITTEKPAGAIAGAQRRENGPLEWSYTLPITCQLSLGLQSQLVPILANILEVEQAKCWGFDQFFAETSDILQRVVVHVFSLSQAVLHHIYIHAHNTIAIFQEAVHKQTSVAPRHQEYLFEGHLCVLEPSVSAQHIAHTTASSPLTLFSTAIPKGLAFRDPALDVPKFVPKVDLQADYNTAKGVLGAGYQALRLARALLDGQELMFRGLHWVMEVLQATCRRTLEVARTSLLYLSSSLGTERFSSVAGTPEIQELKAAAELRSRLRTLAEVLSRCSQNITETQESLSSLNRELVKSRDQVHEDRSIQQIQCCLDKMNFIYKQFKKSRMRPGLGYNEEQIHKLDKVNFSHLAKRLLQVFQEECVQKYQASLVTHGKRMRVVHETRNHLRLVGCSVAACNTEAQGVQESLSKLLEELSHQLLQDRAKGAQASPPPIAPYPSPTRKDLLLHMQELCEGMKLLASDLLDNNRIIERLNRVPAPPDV
Casein kinase I isoform alpha, sequence (P48729 whole entry, canonical isoform): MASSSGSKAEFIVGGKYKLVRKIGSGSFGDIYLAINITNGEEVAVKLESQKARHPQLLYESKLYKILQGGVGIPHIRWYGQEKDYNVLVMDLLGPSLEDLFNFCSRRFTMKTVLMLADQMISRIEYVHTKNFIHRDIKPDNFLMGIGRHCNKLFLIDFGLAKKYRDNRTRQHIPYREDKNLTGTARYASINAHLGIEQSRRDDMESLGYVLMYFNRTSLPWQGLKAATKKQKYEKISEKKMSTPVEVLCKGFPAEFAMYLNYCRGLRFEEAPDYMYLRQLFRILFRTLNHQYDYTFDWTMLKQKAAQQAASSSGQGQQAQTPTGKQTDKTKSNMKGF
Leucine-rich repeat serine/threonine-protein kinase 2, sequence (Q5S007 whole entry): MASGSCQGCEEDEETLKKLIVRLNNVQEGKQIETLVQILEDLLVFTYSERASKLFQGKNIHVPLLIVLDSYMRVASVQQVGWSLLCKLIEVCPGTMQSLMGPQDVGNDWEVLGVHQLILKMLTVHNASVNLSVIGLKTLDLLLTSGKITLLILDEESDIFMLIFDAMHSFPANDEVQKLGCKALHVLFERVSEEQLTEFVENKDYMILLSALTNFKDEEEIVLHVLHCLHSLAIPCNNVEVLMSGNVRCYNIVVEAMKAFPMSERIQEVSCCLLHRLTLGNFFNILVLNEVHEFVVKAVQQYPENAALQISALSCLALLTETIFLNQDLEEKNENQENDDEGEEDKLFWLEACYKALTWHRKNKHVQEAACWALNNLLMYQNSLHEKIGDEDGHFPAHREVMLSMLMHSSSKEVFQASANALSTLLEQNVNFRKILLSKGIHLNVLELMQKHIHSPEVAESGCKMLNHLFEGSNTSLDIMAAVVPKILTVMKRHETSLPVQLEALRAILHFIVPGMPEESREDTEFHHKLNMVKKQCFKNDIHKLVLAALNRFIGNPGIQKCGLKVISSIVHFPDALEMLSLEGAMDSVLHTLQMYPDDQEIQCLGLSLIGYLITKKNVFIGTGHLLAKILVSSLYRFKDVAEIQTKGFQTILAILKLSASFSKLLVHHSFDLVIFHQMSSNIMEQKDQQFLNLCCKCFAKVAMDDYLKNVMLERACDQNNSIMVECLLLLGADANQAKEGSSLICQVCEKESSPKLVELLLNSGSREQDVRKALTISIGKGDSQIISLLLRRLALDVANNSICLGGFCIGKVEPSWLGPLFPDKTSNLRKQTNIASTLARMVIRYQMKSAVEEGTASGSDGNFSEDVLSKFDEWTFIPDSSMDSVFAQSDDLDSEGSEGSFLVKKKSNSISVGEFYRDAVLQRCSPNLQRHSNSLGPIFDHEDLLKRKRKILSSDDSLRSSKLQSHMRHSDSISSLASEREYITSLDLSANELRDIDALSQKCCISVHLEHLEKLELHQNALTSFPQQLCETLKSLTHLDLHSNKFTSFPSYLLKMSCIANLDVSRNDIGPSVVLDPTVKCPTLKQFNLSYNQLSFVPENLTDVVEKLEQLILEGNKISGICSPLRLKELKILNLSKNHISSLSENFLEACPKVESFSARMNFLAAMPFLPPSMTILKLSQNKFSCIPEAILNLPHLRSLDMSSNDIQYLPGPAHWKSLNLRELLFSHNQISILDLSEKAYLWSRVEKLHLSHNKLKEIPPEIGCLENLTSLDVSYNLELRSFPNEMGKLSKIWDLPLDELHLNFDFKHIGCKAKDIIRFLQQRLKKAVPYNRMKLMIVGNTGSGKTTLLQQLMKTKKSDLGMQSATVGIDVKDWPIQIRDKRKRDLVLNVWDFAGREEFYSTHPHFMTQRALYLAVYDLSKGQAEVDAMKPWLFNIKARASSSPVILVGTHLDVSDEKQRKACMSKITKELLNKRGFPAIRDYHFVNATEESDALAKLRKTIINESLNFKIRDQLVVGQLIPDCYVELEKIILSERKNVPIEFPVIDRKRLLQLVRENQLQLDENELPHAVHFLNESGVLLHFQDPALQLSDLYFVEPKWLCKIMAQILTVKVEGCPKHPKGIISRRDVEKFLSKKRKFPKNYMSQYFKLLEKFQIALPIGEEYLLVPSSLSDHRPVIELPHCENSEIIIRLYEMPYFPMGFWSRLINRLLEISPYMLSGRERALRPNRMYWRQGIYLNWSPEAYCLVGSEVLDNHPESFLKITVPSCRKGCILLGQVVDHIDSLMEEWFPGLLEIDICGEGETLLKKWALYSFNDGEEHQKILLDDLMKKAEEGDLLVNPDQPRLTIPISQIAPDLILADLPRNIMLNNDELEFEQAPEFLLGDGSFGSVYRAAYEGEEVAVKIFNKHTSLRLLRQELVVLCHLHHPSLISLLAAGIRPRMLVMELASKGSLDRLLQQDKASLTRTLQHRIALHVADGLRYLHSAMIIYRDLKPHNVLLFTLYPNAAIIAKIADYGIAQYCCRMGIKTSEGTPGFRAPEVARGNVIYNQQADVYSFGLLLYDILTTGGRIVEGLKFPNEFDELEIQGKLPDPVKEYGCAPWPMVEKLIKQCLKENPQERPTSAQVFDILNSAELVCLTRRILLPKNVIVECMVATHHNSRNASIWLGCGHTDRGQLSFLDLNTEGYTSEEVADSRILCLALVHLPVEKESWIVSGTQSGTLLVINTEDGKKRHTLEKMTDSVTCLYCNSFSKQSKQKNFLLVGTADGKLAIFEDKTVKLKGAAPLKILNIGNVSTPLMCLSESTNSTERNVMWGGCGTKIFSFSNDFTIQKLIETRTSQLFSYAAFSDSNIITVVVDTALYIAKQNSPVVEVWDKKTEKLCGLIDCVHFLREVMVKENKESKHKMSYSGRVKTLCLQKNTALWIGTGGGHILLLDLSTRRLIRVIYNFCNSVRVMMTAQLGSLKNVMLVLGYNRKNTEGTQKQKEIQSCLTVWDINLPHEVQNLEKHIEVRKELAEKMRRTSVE
Cyclin-dependent kinase 5, sequence (Q00535 whole entry): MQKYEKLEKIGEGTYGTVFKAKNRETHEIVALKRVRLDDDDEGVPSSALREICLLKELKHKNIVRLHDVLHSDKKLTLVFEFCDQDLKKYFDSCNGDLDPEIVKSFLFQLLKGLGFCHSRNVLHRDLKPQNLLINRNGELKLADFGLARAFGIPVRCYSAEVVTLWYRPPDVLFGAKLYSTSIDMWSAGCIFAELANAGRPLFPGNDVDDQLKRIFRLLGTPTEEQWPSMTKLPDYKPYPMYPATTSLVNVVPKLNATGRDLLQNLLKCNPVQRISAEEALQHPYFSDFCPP

## CC1=CN2CC(=O)NN=C2C=C1
[1]
  Ki: > 100 µM (inactive)
[2]
  Ki: 79.4 µM (active)
[3]
  Ki: 63.1 µM (active)
[4]
  Ki: 12.6 µM (active)
[5]
  Ki: 100 µM (active)
LIM domain kinase 1
  Ki: 12.6 µM (active)
Aurora kinase B
  Ki: 79.4 µM (active)
[6]
  Ki: 31.6 µM (active)
[7]
  Ki: 79.4 µM (active)
[8]
  Ki: 50.1 µM (active)
[9]
  Ki: 50.1 µM (active)
[10]
  Ki: 79.4 µM (active)
Aurora kinase A
  Ki: 31.6 µM (active)
[11]
  Ki: 100 µM (active)
[12]
  Ki: 20 µM (active)
[13]
  Ki: 20 µM (active)
[14]
  Ki: 50.1 µM (active)
[15]
  Ki: 63.1 µM (active)
[16]
  Ki: 12.6 µM (active)
[17]
  Ki: > 79.4 µM (inactive)
[18]
  Ki: 100 µM (active)
Focal adhesion kinase 1
  Ki: 79.4 µM (active)
[19]
  Ki: > 100 µM (inactive)
[20]
  Ki: > 100 µM (inactive)
[21]
  Ki: 25.1 µM (active)
[22]
  Ki: 50.1 µM (active)
[23]
  Ki: 79.4 µM (active)
[24]
  Ki: 3.16 µM (active)
[25]
  Ki: 50.1 µM (active)
[26]
  Ki: 31.6 µM (active)
[27]
  Ki: > 50.1 µM (inactive)

## CCN(CC)CCOC(=O)c1ccc(N/C=C(/C#N)c2nc(-c3ccc4c(c3)OCO4)cs2)cc1
[28]
  IC50: > 66.6 µM (inactive)
[29]
  IC50: > 100 µM (inactive)
Bcl-2-related protein A1
  IC50: 1.72 µM (active)
Prothrombin
  IC50: 56.1 µM (active)
[30]
  IC50: 31.4 µM (active)
[31]
  IC50: 6.43 µM (active)
[32]
  IC50: 2.13 µM (active)
[33]
  IC50: 5.07 µM (active)
INS1
  AC50: 11 µM (active)
[34]
  IC50: 20.7 µM (active)
[35]
  CC50: > 40 µM (active)
[36]
  IC50: 6.35 µM (active)
[37]
  IC50: 120 µM (active)

## CCOCCSc1nc2c(c(-c3cccs3)c1C#N)CC/C2=C/c1cccs1
[38]
  EC50: 6.4 µM (active)
Lethal factor
  EC50: 16.7 µM (active)
[39]
  EC50: 8 µM (active)
[40]
  EC50: 17.8 µM (active)
